Assay results published in patent US20230389548A1, “MIXTURES OF PYRIMIDINES AS HERBICIDAL COMPOSITIONS” (SYNGENTA CROP PROTECTION AG, priority 2020, published 2023).

Tests used:
Assay in all cases: Post-emergence glasshouse spray test, visual percentage phytotoxicity after 13 days
Format in all cases: in vivo
[1] = system: Abutilon threophrasti (ABUTH); details: for ABUTH percentage phytotoxicity: B1
Experimental: (§1) Seeds of Setaria faberi (SETFA), Echinochloa crus-galli (ECHCG), Digitaria sanguinalis (DIGSA), Lolium perenne (LOLPE), Alopecurus myosuroides (ALOMY), Chenopodium album (CHEAL), Ipomoea hederacea (IPOHE), Stellaria media (STEME), Abutilon threophrasti (ABUTH), Amaranthus retroflexus (AMARE) were sown in standard sterilised soil in pots. After cultivation for 8 days under controlled conditions in a glasshouse (at 24/19° C., day/night; 16 hours light; no humidity control), the plants were sprayed at 500 l/Ha with an aqueous spray solution derived from the formulation of the technical active ingredients in a small amount of acetone and a solvent and emulsifier mixture referred to as IF50 (11.12% Emulsogen EL360™+44.44% N-methylpyrrolidone+44.44% Dowanol DPM glycol ether), to create a 50 g/l solution which was then diluted using 0.2% Genapol XO80 (CAS Number: 9043-30-5) as diluent to give the desired final dose of test compound.
(§2) Where active ingredients were applied as mixtures, aqueous spray solutions were prepared as above, containing both active ingredients.
(§3) The test plants were then grown under controlled conditions in a glasshouse (at 24/18° C., day/night; 15 hours light; 50% humidity) and watered twice daily. After 13 days, the test was evaluated visually for percentage phytotoxicity to the plants (where 100=total damage to plant; 0=no damage to plant; and NC=not captured) when compared to control untreated plants. Two to four replicates were applied for each treatment in a randomised block test design.
(§4) 22., E=X+Y−(X*Y/100), where
(§5) X=average percent phytotoxicity of herbicide A when applied at a certain rate Y=average percent phytotoxicity using herbicide B when applied at a certain rate E=the expected effect of the mixture of herbicides A and B as calculated from the Colby formula.

[2] = system: Amaranthus retroflexus (AMARE); details: for AMARE percentage phytotoxicity: B1
Experimental: as §1, §2, §3, §4, §5

[3] = system: Chenopodium album (CHEAL); details: for CHEAL percentage phytotoxicity: B1
Experimental: as §1, §2, §3, §4, §5

[4] = system: Digitaria sanguinalis (DIGSA); details: for DIGSA percentage phytotoxicity: B1; for Observed phytotoxicity DIGSA: B2.4.2
Experimental: as §1, §2, §3, §4, §5

[5] = system: Echinochloa crus-galli (ECHCG); details: for ECHCG percentage phytotoxicity: B1; for Observed phytotoxicity ECHCG: B2.1.2
Experimental: as §1, §2, §3, §4, §5

[6] = system: Ipomoea hederacea (IPOHE); details: for IPOHE percentage phytotoxicity: B1; for Observed phytotoxicity IPOHE: B2.4.5
Experimental: as §1, §2, §3, §4, §5

[7] = system: Lolium perenne (LOLPE); details: for LOLPE percentage phytotoxicity: B1
Experimental: as §1, §2, §3, §4, §5

[8] = system: Setaria faberi (SETFA); details: for SETFA percentage phytotoxicity: B1
Experimental: as §1, §2, §3, §4, §5

[9] = system: Stellaria media (STEME); details: for STEME percentage phytotoxicity: B1; for Observed phytotoxicity STEME: B2.1.4
Experimental: as §1, §2, §3, §4, §5

[10] = system: Alopecurus myosuroides (ALOMY); details: for ALOMY percentage phytotoxicity: B1
Experimental: as §1, §2, §3, §4, §5

## CN1C[C@H](c2cccc(C(F)(F)F)c2)[C@@H](C(=O)Nc2ccccc2F)C1=O [B-III]
[1]; 3.125 g/ha post-emergence
  ABUTH percentage phytotoxicity: 10%
[1]; 6.25 g/ha post-emergence
  ABUTH percentage phytotoxicity: 4%
[1]; 12.5 g/ha post-emergence
  ABUTH percentage phytotoxicity: 3%
[1]; 25 g/ha post-emergence
  ABUTH percentage phytotoxicity: 19%
[1]; 50 g/ha post-emergence
  ABUTH percentage phytotoxicity: 18%
[1]; B2.1.7, 6.25 g/ha post-emergence
  Observed phytotoxicity ABUTH: 4%
[1]; B2.1.7, 12.5 g/ha post-emergence
  Observed phytotoxicity ABUTH: 3%
[1]; B2.1.7, 25 g/ha post-emergence
  Observed phytotoxicity ABUTH: 19%
[1]; B2.1.7, 50 g/ha post-emergence
  Observed phytotoxicity ABUTH: 18%
[2]; 3.125 g/ha post-emergence
  AMARE percentage phytotoxicity: 4%
[2]; 6.25 g/ha post-emergence
  AMARE percentage phytotoxicity: 6%
[2]; 12.5 g/ha post-emergence
  AMARE percentage phytotoxicity: 10%
[2]; 25 g/ha post-emergence
  AMARE percentage phytotoxicity: 21%
[2]; 50 g/ha post-emergence
  AMARE percentage phytotoxicity: 31%
[2]; B2.1.5, 6.25 g/ha post-emergence
  Observed phytotoxicity AMARE: 6%
[3]; 3.125 g/ha post-emergence
  CHEAL percentage phytotoxicity: 6%
[3]; 6.25 g/ha post-emergence
  CHEAL percentage phytotoxicity: 10%
[3]; 12.5 g/ha post-emergence
  CHEAL percentage phytotoxicity: 14%
[3]; 25 g/ha post-emergence
  CHEAL percentage phytotoxicity: 44%
[3]; 50 g/ha post-emergence
  CHEAL percentage phytotoxicity: 56%
[3]; B2.1.6, 6.25 g/ha post-emergence
  Observed phytotoxicity CHEAL: 10%
[3]; B2.1.6, 12.5 g/ha post-emergence
  Observed phytotoxicity CHEAL: 14%
[4]; 3.125 g/ha post-emergence
  DIGSA percentage phytotoxicity: 72%
[4]; 6.25 g/ha post-emergence
  DIGSA percentage phytotoxicity: 74%
[4]; 12.5 g/ha post-emergence
  DIGSA percentage phytotoxicity: 78%
[4]; 25 g/ha post-emergence
  DIGSA percentage phytotoxicity: 79%
[4]; 50 g/ha post-emergence
  DIGSA percentage phytotoxicity: 80%
[5]; 3.125 g/ha post-emergence
  ECHCG percentage phytotoxicity: 70%
[5]; 6.25 g/ha post-emergence
  ECHCG percentage phytotoxicity: 70%
[5]; 12.5 g/ha post-emergence
  ECHCG percentage phytotoxicity: 73%
  Observed phytotoxicity ECHCG: 73%
[5]; 25 g/ha post-emergence
  ECHCG percentage phytotoxicity: 73%
[5]; 50 g/ha post-emergence
  ECHCG percentage phytotoxicity: 75%
  Observed phytotoxicity ECHCG: 75%
[6]; 3.125 g/ha post-emergence
  IPOHE percentage phytotoxicity: 9%
[6]; 6.25 g/ha post-emergence
  IPOHE percentage phytotoxicity: 11%
[6]; 12.5 g/ha post-emergence
  IPOHE percentage phytotoxicity: 15%
[6]; 25 g/ha post-emergence
  IPOHE percentage phytotoxicity: 24%
[6]; 50 g/ha post-emergence
  IPOHE percentage phytotoxicity: 28%
[7]; 3.125 g/ha post-emergence
  LOLPE percentage phytotoxicity: 30%
[7]; 6.25 g/ha post-emergence
  LOLPE percentage phytotoxicity: 43%
[7]; 12.5 g/ha post-emergence
  LOLPE percentage phytotoxicity: 55%
[7]; 25 g/ha post-emergence
  LOLPE percentage phytotoxicity: 70%
[7]; 50 g/ha post-emergence
  LOLPE percentage phytotoxicity: 75%
[7]; B2.1.1, 6.25 g/ha post-emergence
  Observed phytotoxicity LOLPE: 43%
[7]; B2.1.1, 12.5 g/ha post-emergence
  Observed phytotoxicity LOLPE: 55%
[8]; 3.125 g/ha post-emergence
  SETFA percentage phytotoxicity: 66%
[8]; 6.25 g/ha post-emergence
  SETFA percentage phytotoxicity: 68%
[8]; 12.5 g/ha post-emergence
  SETFA percentage phytotoxicity: 70%
[8]; 25 g/ha post-emergence
  SETFA percentage phytotoxicity: 74%
[8]; 50 g/ha post-emergence
  SETFA percentage phytotoxicity: 73%
[8]; B2.1.3, 25 g/ha post-emergence
  Observed phytotoxicity SETFA: 74%
[9]; 3.125 g/ha post-emergence
  STEME percentage phytotoxicity: 13%
[9]; 6.25 g/ha post-emergence
  STEME percentage phytotoxicity: 21%
  Observed phytotoxicity STEME: 21%
[9]; 12.5 g/ha post-emergence
  STEME percentage phytotoxicity: 14%
  Observed phytotoxicity STEME: 14%
[9]; 25 g/ha post-emergence
  STEME percentage phytotoxicity: 46%
[9]; 50 g/ha post-emergence
  STEME percentage phytotoxicity: 71%

## CS(=O)(=O)c1ccc(C(=O)C2C(=O)CCCC2=O)c(Cl)c1OCCC1OCCO1 [B-II]
[1]; 0.625 g/ha post-emergence
  ABUTH percentage phytotoxicity: 3%
[1]; 1.25 g/ha post-emergence
  ABUTH percentage phytotoxicity: 38%
[1]; 2.5 g/ha post-emergence
  ABUTH percentage phytotoxicity: 50%
[1]; 5 g/ha post-emergence
  ABUTH percentage phytotoxicity: 58%
[1]; 10 g/ha post-emergence
  ABUTH percentage phytotoxicity: 63%
[1]; B2.4.6, 0.625 g/ha post-emergence
  Observed phytotoxicity ABUTH: 3%
[10]; 0.625 g/ha post-emergence
  ALOMY percentage phytotoxicity: 0%
[10]; 1.25 g/ha post-emergence
  ALOMY percentage phytotoxicity: 0%
[10]; 2.5 g/ha post-emergence
  ALOMY percentage phytotoxicity: 0%
[10]; 5 g/ha post-emergence
  ALOMY percentage phytotoxicity: 0%
[10]; 10 g/ha post-emergence
  ALOMY percentage phytotoxicity: 0%
[10]; B2.4.4, 10 g/ha post-emergence
  Observed phytotoxicity ALOMY: 0%
[2]; 0.625 g/ha post-emergence
  AMARE percentage phytotoxicity: 0%
[2]; 1.25 g/ha post-emergence
  AMARE percentage phytotoxicity: 5%
[2]; 2.5 g/ha post-emergence
  AMARE percentage phytotoxicity: 10%
[2]; 5 g/ha post-emergence
  AMARE percentage phytotoxicity: 28%
[2]; 10 g/ha post-emergence
  AMARE percentage phytotoxicity: 48%
[2]; B2.4.8, 2.5 g/ha post-emergence
  Observed phytotoxicity AMARE: 10%
[3]; 0.625 g/ha post-emergence
  CHEAL percentage phytotoxicity: 0%
[3]; 1.25 g/ha post-emergence
  CHEAL percentage phytotoxicity: 0%
[3]; 2.5 g/ha post-emergence
  CHEAL percentage phytotoxicity: 38%
[3]; 5 g/ha post-emergence
  CHEAL percentage phytotoxicity: 53%
[3]; 10 g/ha post-emergence
  CHEAL percentage phytotoxicity: 65%
[3]; B2.4.7, 1.25 g/ha post-emergence
  Observed phytotoxicity CHEAL: 0%
[4]; 0.625 g/ha post-emergence
  DIGSA percentage phytotoxicity: 0%
[4]; 1.25 g/ha post-emergence
  DIGSA percentage phytotoxicity: 0%
[4]; 2.5 g/ha post-emergence
  DIGSA percentage phytotoxicity: 0%
  Observed phytotoxicity DIGSA: 0%
[4]; 5 g/ha post-emergence
  DIGSA percentage phytotoxicity: 0%
  Observed phytotoxicity DIGSA: 0%
[4]; 10 g/ha post-emergence
  DIGSA percentage phytotoxicity: 0%
  Observed phytotoxicity DIGSA: 0%
[6]; 0.625 g/ha post-emergence
  IPOHE percentage phytotoxicity: 3%
[6]; 1.25 g/ha post-emergence
  IPOHE percentage phytotoxicity: 10%
[6]; 2.5 g/ha post-emergence
  IPOHE percentage phytotoxicity: 23%
  Observed phytotoxicity IPOHE: 23%
[6]; 5 g/ha post-emergence
  IPOHE percentage phytotoxicity: 38%
[6]; 10 g/ha post-emergence
  IPOHE percentage phytotoxicity: 48%
  Observed phytotoxicity IPOHE: 48%
[7]; 0.625 g/ha post-emergence
  LOLPE percentage phytotoxicity: 0%
[7]; 1.25 g/ha post-emergence
  LOLPE percentage phytotoxicity: 0%
[7]; 2.5 g/ha post-emergence
  LOLPE percentage phytotoxicity: 0%
[7]; 5 g/ha post-emergence
  LOLPE percentage phytotoxicity: 0%
[7]; 10 g/ha post-emergence
  LOLPE percentage phytotoxicity: 0%
[7]; B2.4.3, 5 g/ha post-emergence
  Observed phytotoxicity LOLPE: 0%
[7]; B2.4.3, 10 g/ha post-emergence
  Observed phytotoxicity LOLPE: 0%
[8]; 0.625 g/ha post-emergence
  SETFA percentage phytotoxicity: 0%
[8]; 1.25 g/ha post-emergence
  SETFA percentage phytotoxicity: 0%
[8]; 2.5 g/ha post-emergence
  SETFA percentage phytotoxicity: 0%
[8]; 5 g/ha post-emergence
  SETFA percentage phytotoxicity: 0%
[8]; 10 g/ha post-emergence
  SETFA percentage phytotoxicity: 3%
[8]; B2.4.1, 5 g/ha post-emergence
  Observed phytotoxicity SETFA: 0%
[9]; 0.625 g/ha post-emergence
  STEME percentage phytotoxicity: 0%
[9]; 1.25 g/ha post-emergence
  STEME percentage phytotoxicity: 13%
[9]; 2.5 g/ha post-emergence
  STEME percentage phytotoxicity: 45%
[9]; 5 g/ha post-emergence
  STEME percentage phytotoxicity: 35%
[9]; 10 g/ha post-emergence
  STEME percentage phytotoxicity: 38%
